According to patent US6339062B1, “Retroinverso polypeptides that mimic or inhibit thrombospondin activity” (Inkine Pharmaceutical Company, Inc., priority 1998, dated 2002):
Marks after values point to notes of the source that are not given here. Where no end group is shown, it is not given here.

What was measured:
washed human platelets = test: Collagen-induced platelet aggregation (Examples 9, 10); assay type: cell-based; conditions: 5 μg/ml collagen; various concentrations; FIG. 10
Procedure: Washed human platelets were suspended in HEPES-buffered saline, containing 5 mM glucose and 350 μg/ml BSA. 0.5 ml aliquots of platelets were aggregated by stirring with 5 μg/ml collagen in the presence of 500 μg/ml of various peptides. Aggregation was measured at 37° C. as decrease in optical absorbance vs. time in a Chrono-log aggregometer and is shown in FIG. 9. 100% aggregation was defined as the maximal decrease in absorbance measured in the absence of peptide. % of control was calculated as the decrease in absorbance measured in the presence of peptide divided by the decrease in absorbance measured in the absence of peptide times 100. Peptides are designated under each bar graph by their amino acid sequence represented using the one letter amino acid code.
Washed human platelets were suspended in HEPES-buffered saline, containing S mM glucose and 350 μg/ml BSA. […] Aggregation was measured at 37° C. as decrease in optical absorbance vs. time in a chrono-log aggregometer and is shown in FIG. 10. 100%; aggregation was defined as the maximal decrease in absorbance measured in the absence of peptide. % of control was calculated as the decrease in absorbance measured in the presence of peptide divided by the decrease in absorbance measured in the absence of peptide times 100.

[1] = test system: mouse B16-F10 melanoma cells; test: Melanoma tumor cell metastasis, peptide i.v. (Example 21); assay type: in vivo, mice; conditions: 1 mg peptide i.v. shortly before or after tumor implantation; two weeks; FIG. 12
From the text: Mice were sacrificed two weeks later and lung tumors counted. Treatment groups consisted of five animals. The photograph of FIG. 12 depicts three lungs from each treatment group. The black spots are melanoma tumors. All metastasis experiments were repeated 2-3 times showing qualitatively similar results depicted in the bar graph of FIG. 12.

[2] = test system: mouse B16-F10 melanoma cells; test: Melanoma lung metastasis, one bolus i.v. or i.p. (Example 22); assay type: in vivo; conditions: mouse, in vivo
Procedure: One bolus injection of Cys-(Acm)-Ser-Val-Thr-Cys-(Acm)-Gly (SEQ ID NO: 6) peptide (1 mg/mouse intravenously or 5 mg/mouse intraperitoneally ) was administered followed by intravenous injection of mouse B16-F10 melanoma cells (100,000). Each treatment group consisted of 5 animals. After 10 days animals were sacrificed and lung tumors counted. […] Error bars represent the standard error of the mean. P values between control and peptide-treated groups <0.001.

[3] = test system: human MDA-MB-231 breast carcinoma cells; test: Athymic model of human tumor progression, peptide experiments (Example 24); assay type: in vivo, athymic mice
Procedure: To further evaluate the anti-metastatic properties of the Cys-Ser-Val-Thr-Cys-Gly (SEQ ID NO: 1) peptide, we measured the effect of peptide and antibody against the Cys-Ser-Val-Thr-Cys-Gly (SEQ ID NO: 1) receptor in an athymic model of human tumor progression. In this model, human MDA-MB-231 breast carcinoma cells were injected intraperitoneally in athymic mice. Animals were then treated with either peptide or receptor IgG for three weeks after which the extent of lung and liver metastasis is determined.
For the peptide experiments, eighteen mice were inoculated with MDA-MB-231 human breast cancer cells. After 72 hours, mice were randomized to treatment with every-other-day intraperitoneal injections of saline, scrambled peptide, or a Cys-Ser-Val-Thr-Cys-Gly (SEQ ID NO: 1) peptide for 20 days. One mouse treated with the Cys-Ser-Val-Thr-Cys-Gly (SEQ ID NO: 1) peptide expired after traumatic injection. Mice were sacrificed at 21 days. The peritoneal cavity was examined grossly for primary tumor implantation. The liver and lungs were examined histologically for micrometastases. Statistical analysis was performed by Chi-square analysis.

[4] = test system: MMP-9 production in BAE cells; test: TSP-1-stimulated endothelial MMP-9 production (Example 27); assay type: cell-based
Procedure: BAE cells were treated with TSP-1 as described in Example 27. MMP-9 levels were quantitated from densitometry of the zymograms prepared from the BAE cell conditioned media. The control was 15 μg/ml TSP-1. All other treatments were performed in the presence of 15 μg/ml TSP-1.

rat aorta = test: Angiogenesis in serum-free collagen gel culture of rat aorta (Example 28); assay type: cell-based; conditions: compared to untreated control or scrambled peptide control; FIG. 17
From the text: Error bars=SEM. Photo-micrograph (4× magnification) of a representative aortic ring culture treated either with Cys-Ser-Val-Thr-Cys-Gly (SEQ ID NO: 1) or Val-Cys-Thr-Gly-Ser-Cys (SEQ ID NO: 7) (FIG. 17B). The Cys-Ser-Val-Thr-Cys-Gly (SEQ ID NO: 1)-treated culture has fewer capillary outgrowths than the Val-Cys-Thr-Gly-Ser-Cys (SEQ ID NO: 7) scrambled peptide control.

[5] = test system: mouse B16-F10 melanoma cells; test: Direct adhesion to dried peptide (Example 31); assay type: cell-based; conditions: 10 μg of each peptide; one hour; FIG. 20
Procedure: Peptide effect on direct adhesion was tested by drying 10 μg of each peptide on the bottom of a 96well microtiter plate. Plates were blocked with BSA. Mouse B16-F10 melanoma cells (50,000) were plated in each well and allowed to attach for one hour. Non-adherent cells were aspirated out, plates rinsed, and adherent cells were fixed, stained, and counted. The error bars represent the standard deviation.

[6] = i.p. every other day for 20 days, sacrificed at 21 days

CSVTCG (cysteine pairing not given here)
collagen-induced platelet aggregation, dose response (washed human platelets): inhibit collagen-induced platelet aggregation | melanoma cell metastasis (lung tumors) [1]: significantly blocked | blocking activity in metastasis and the other assays, peptide versus blocked analogue [2]: identical blocking activity | in vivo breast cancer progression; metastases in the two organs examined ([3]; compared with saline or scrambled peptide groups): significantly decreased metastases | intraperitoneal tumors ([3]; gross examination at 21 days): fewer and smaller intraperitoneal tumors | Liver: no. of animals with metastases/total no. of animals [3, 6]: 1/5* | Lungs: no. of animals with metastases/total no. of animals [3, 6]: 0/5 | % inhibition (MMP-9) ([4]; 0.20 mM, with 15 μg/ml TSP-1): 86% | Relative MMP-9 Levels ([4]; 0.20 mM, with 15 μg/ml TSP-1): 0.14 | inhibited MMP-9 production ([4]; at high doses): 86% | angiogenesis (capillary outgrowths) (rat aorta): inhibited angiogenesis | adhesion of cells to dried peptide [5]: half as well as fibronectin and TSP-1
